Source: the NIST ThermoML archive (doi:10.1021/acs.jced.6b00268)
± gives the expanded uncertainty stated by the source.

How the values were obtained:
[1] = Crystal; DTA
[2] = Molar enthalpy of transition or fusion; conditions: Crystal; DSC

## CC(C)OC(=O)C(C)(C)Oc1ccc(C(=O)c2ccc(Cl)cc2)cc1 [fenofibrate]
[1]
  Normal melting temperature: 80.47 ± 1.1 °C
[2]
  Molar enthalpy of transition or fusion: 7.45 ± 0.167 kcal/mol
